{"source": "patent CN116139126A", "about": "“表没食子儿茶素-3-没食子酸酯在制备嗜水气单胞菌的群体感应抑制剂中的应用” (Yueyang Yumeikang Bio Tech Co ltd, priority 2023, dated 2023)", "tested_on": "hemolysin of Aeromonas hydrophila (嗜水气单胞菌 溶血素)", "assay": "Quantitative beta-hemolysin assay (5% rabbit red blood cells)", "type": "cell-based, Aeromonas hydrophila AH08", "data": [{"smiles": "O=C(O[C@@H]1Cc2c(O)cc(O)cc2O[C@@H]1c1cc(O)c(O)c(O)c1)c1cc(O)c(O)c(O)c1", "note": "[EGCG, 表没食子儿茶素-3-没食子酸酯]", "values": [{"measurement": "inhibition at 256 µg/mL", "setting": "Aeromonas hydrophila, Erythrocyte, 256 μg/ml, compared with blank control, read-out: inhibition rate of hemolysin", "value": 28.2, "unit": "%"}, {"measurement": "inhibition of hemolytic activity (in words)", "setting": "high concentration EGCG", "value": "显著抑制"}]}]}
